In patent publication US20130171278A1 (priority 2010, published 2013):

Tests used:
[1] = tested on: scopolamine-induced memory deficit rat model; test: Passive avoidance test in scopolamine-induced memory deficit model; assay type: in vivo; details: 24 hrs after shock
Procedure: (§1) Ethology test such as passive avoidance test and radial maze test were performed for Artemisia apiaceae. In the case of passive avoidance test, the control group, the scopolamine-treated group (3 mg/kg, i.p.), the tacrine-treated group after scopolamine treatment (10 mg/kg p.o.) and the Artemisia apiaceae extract-treated group were shocked. After 24 hrs, entering time to dark chamber (step-through latency, STL) was measured. […] Furthermore, in order to verify enhancement in more specific learning ability, acquisition test in which an error frequency is measured was performed using 8-arm radial maze.

scopolamine-treated rat = test: 8-arm radial maze acquisition test in scopolamine-treated animals; assay type: in vivo
Procedure: as §1

SMILES | entering time into the dark chamber (step-through latency, STL) ([1]; scopolamine 3 mg/kg i.p., compared with the control group) | error frequency compared with the scopolamine-treated group (scopolamine-treated rat) | error frequency (scopolamine-treated rat; normal group 1.6, negative control group 3.25) | entering time into the dark chamber (step-through latency, STL) ([1]; tacrine 10 mg/kg p.o. after scopolamine treatment)
CN1[C@@H]2C[C@@H](OC(=O)[C@H](CO)c3ccccc3)C[C@H]1[C@@H]1O[C@@H]12 [scopolamine] | significantly decreased entering time into the dark chamber |  |  | 
Nc1c2c(nc3ccccc13)CCCC2 [tacrine] |  | significantly decreased error frequency | 1.75 | significantly increased entering time into the dark chamber
